Test results: publication PMC4237514, “Novel amino-β-lactam derivatives as potent cholesterol absorption inhibitors” (European Journal of Medicinal Chemistry, 2014)
pIC50: −log10 of the molar value.

Assays:
human NPC1L1 = target: T1, human NPC1L1 (Homo sapiens, UniProt Q9UHC9); test: In vitro [3H]cholesterol uptake assay in hNPC1L1/MDCKII cells; format: cell-based; settings: for pIC50: 1 h, read-out: IC50, cholesterol uptake inhibition; for inhibition at 120 µM: MDCK-II, maximum at 120 μM, compared to untreated cells
T1 construct: expressed in transfected cells
T1 sequence (Q9UHC9 22-1359): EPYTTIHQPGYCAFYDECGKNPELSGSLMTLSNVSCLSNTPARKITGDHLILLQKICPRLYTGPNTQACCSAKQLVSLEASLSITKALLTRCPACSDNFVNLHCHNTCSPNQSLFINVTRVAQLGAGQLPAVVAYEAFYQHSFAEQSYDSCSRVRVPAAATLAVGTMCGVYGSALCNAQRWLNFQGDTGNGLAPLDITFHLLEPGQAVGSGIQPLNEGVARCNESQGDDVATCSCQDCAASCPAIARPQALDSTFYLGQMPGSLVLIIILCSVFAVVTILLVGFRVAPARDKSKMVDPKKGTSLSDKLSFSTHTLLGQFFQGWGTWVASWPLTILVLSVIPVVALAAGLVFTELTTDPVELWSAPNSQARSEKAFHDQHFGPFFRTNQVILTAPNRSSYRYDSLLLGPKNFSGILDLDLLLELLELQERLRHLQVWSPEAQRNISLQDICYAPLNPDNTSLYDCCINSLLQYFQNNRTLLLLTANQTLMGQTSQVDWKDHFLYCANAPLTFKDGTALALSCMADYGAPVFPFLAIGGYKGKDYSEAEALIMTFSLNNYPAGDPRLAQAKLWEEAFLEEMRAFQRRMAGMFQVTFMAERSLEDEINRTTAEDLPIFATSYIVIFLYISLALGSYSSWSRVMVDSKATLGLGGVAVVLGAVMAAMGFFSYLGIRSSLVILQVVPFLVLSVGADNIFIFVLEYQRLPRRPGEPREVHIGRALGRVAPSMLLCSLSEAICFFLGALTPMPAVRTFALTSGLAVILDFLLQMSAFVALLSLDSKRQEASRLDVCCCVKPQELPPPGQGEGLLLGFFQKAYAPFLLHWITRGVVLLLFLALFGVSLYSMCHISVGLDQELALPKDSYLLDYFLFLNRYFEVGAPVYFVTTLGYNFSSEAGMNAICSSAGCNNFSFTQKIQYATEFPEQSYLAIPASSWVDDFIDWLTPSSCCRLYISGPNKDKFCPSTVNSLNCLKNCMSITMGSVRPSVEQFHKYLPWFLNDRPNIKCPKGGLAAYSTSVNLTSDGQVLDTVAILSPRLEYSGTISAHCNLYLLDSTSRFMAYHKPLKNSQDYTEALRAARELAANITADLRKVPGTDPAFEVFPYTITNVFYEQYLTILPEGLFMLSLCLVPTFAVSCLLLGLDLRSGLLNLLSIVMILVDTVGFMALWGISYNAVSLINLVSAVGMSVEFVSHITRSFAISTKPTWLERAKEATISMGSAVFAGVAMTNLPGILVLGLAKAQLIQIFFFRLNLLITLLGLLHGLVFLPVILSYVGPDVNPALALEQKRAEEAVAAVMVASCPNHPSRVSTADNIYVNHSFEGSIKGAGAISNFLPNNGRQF
Description: Medium A contained DMEM plus 100 units/mL penicillin and 100 μg/mL streptomycin supplemented with 5% lipoprotein-deficient serum (density > 1.21 g/mL, prepared from FCS by ultracentrifugation). Cholesterol Replenishing Medium (Medium B) was prepared according to the modified method reported by Field et al.. In brief, 0.25 mM oleic acid, 50 μM free cholesterol, 10 μM compactin, 50 μM mevalonate, 5 mM Na-taurocholate (Sigma–Aldrich, Germany), and [^3H]cholesterol (0.18 μCi/mL medium, [1,2–3H(N)] cholesterol, 1 mCi/mL (ARC Inc., USA)) in Medium A were mixed and sonicated. Following the micellar formation, compounds 1, 5, 6, 5/6 (70:30), and 6/5 (85:15) (73 mM stock solution in DMSO) were added to Medium B and vortexed to obtain the final concentrations (10, 30, 60, 90, 120, 150, 200 μM).
MDCKII wildtype and hNPC1L1/MDCKII cells were seeded in 24-well plates at a density of 5 × 10^5 cells/mL medium (500 μL medium/well) in Medium A 24 h before the treatment. Cells were washed once with PBS and incubated in Medium B (500 μL medium/well) containing micelles and tested compounds in indicated concentrations for 1 h. Following the incubation, the medium was removed and cells were washed three times with ice-cold 0.2% free fatty acid-free BSA. Cells were lysed and radioactivity in the lysate (100 μL) was determined by liquid scintillation counting. Protein concentrations of the lysates were determined with the DC Protein Assay (Bio-Rad, USA). The results were calculated as cpm/mg protein and expressed as percentage of inhibition compared to untreated cells. Each concentration was tested in duplicate in three independent experiments.

[1] = MTT cytotoxicity in combination with micelles; format: cell-based; settings: dog, MDCKII wildtype and hNPC1L1/MDCKII cells, Figure S2, read-out: LC50 in combination with micelles
Description: MDCKII, hNPC1L1/MDCKII, and HepG2 cells were seeded in 96-well microtiter plates on day 0 at densities of 3000 cells/well. On day 1, tested compounds (73 mM stock solution in DMSO) were added in five consecutive 10-fold dilutions (10^−8 to 10^−4 mol/L) and incubated for 72 h. Cytotoxicity of the compounds was assessed on day 4 by the MTT cell proliferation assay (Sigma–Aldrich, Germany) which detects mitochondrial dehydrogenase activity in viable cells. The results are expressed as LC50 and the values for each compound were calculated from dose–response curves using linear regression analysis. Each concentration was tested in quadruplicate in three independent experiments. Toxicity of the compounds in combination with micelles was also tested using the same method. MDCKII and hNPC1L1/MDCKII were seeded in 96-well microtiter plates (150 μL medium/well) at a density of 2 × 10^5 cells/mL medium 24 h before the experiment. Micelles were prepared according to the modified method reported by Field et al.. In brief, 0.25 mM oleic acid, 50 μM cholesterol, 10 μM compactin, 50 μM mevalonate, 5 mM Na-taurocholate (Sigma–Aldrich, Germany) in DMEM/10% FCS were mixed and sonicated. Following the micellar formation, compounds 1, 5, 6, and 5/6 (70:30) (73 mM stock solution in DMSO) were added to the medium and vortexed to obtain the final concentrations of the compounds (25, 50, 100, 150, 200 μM) and applied to the cells for 1 h. Thereafter, cytotoxicity was determined using the MTT assay.
Figure S2. In vitro cytotoxicity of the compounds 5, 6, and 5/6 (70:30) in combination with micelles. Cytotoxicity of the newly synthesized compounds was determined in (A) MDCKII wildtype and (B) hNPC1L1/MDCKII cells. The cells were incubated with the indicated concentrations of the compounds in Medium B (0.25 mM oleic acid, 50 μM free cholesterol, 10 μM compactin, 50 μM mevalonate, 5 mM Na-taurocholate in DMEM supplemented with 5% LPDS) for 1 h. The results are expressed as percentage of the survival of cells treated with the compound compared to untreated cells. Data represent mean ± S.E.M. of three independent experiments.

Structure (SMILES)	pIC50 (human NPC1L1)	inhibition at 120 µM (human NPC1L1)	CC50 at 1 h [1]	effect on cholesterol uptake (human NPC1L1; Figure S3)
O=C1[C@H](NCC(O)c2ccc(F)cc2)[C@@H](c2ccc(O)cc2)N1c1ccc(F)cc1 (mixture of isomers) [5/6 (70:30), (3R,4R)-3-[(2R/S)-2-(4-fluorophenyl)-2-hydroxyethylamino]-1-(4-fluorophenyl)-4-(4-hydroxyphenyl)azetidin-2-one]	4.22	50 to 55%	> 100 µM	–
O=C1[C@H](CC[C@H](O)c2ccc(F)cc2)[C@@H](c2ccc(O)cc2)N1c1ccc(F)cc1 [Compound 1, ezetimibe, reference compound]	–	–	> 100 µM	inhibited cholesterol uptake
O=C1[C@H](NC[C@H](O)c2ccc(F)cc2)[C@@H](c2ccc(O)cc2)N1c1ccc(F)cc1 [Compound 5]	4.14	50 to 55%	> 100 µM	–
O=C1[C@H](NC[C@@H](O)c2ccc(F)cc2)[C@@H](c2ccc(O)cc2)N1c1ccc(F)cc1 [Compound 6, (3R,4R)-3-[(2S)-2-(4-fluorophenyl)-2-hydroxyethylamino]-1-(4-fluorophenyl)-4-(4-hydroxyphenyl)azetidin-2-one]	4.10	50 to 55%	> 100 µM	–
